Source: patent US4771123A, “Peptide thioneamides as selective substrates for cysteine proteases” (Enzyme Systems Products, Inc., priority 1986, dated 1988)

Columns and labels:
Type in all cases: biochemical
Papain [1] = target: T1, Papain (Carica papaya, UniProt P00784); test: Selective detection assay, rate of AIE formation with papain alone (Table II); conditions: Papain 6.85×10^-6 M; thiol buffer pH 6.5, 2.5% DMSO; substrate 2.46×10^-4 M (Cbz-Lys-AIE) or 2.53×10^-4 M (Cbz-Lys.PSI.[CS]-AIE)
T1 sequence (P00784 134-345): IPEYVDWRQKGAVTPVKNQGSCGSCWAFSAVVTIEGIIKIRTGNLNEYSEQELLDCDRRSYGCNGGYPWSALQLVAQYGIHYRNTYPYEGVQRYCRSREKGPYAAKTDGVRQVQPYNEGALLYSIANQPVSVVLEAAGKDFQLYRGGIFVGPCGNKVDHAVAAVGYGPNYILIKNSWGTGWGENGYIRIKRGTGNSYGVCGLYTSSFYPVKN
Description: (§1) A thiol buffer at pH 6.5 was used (52 mM NaH2 PO4, 31 mM dithiothreitol, 2.1 mM EDTA) with 2.5% DMSO. The enzyme concentrations in the assays were 6.85×10^-6 M for papain, and 1.28×10^-6 M for trypsin. Substrate concentrations were 2.46×10^-4 M for Cbz-Lys-AIE, and 2.53×10^-4 M for Cbz-Lys.PSI.[CS]-AIE. Rates are given in terms of moles AIE formed per minute.

Trypsin [2] = test: Hydrolysis of oxyamide and thioneamide substrates by trypsin (catalytic constants, Table I); conditions: pH 7.5, Tris buffer (50 mM), 10 mM CaCl2, 12.5% DMSO
Description: (§2) Table I below provides a comparison between hydrolysis rates of trypsin and papain acting on two different oxyamides and on their corresponding thioneamides. Trypsin was used at pH 7.5 in a Tris buffer (50 mM), with 10 mM CaCl2, and 12.5% DMSO. Papain was used at pH 6.5 in a thiol buffer (52 mM NaH2 PO4, 31 mM dithiothreitol, 2.1 mM EDTA) and 12.5% DMSO. Table I lists the catalytic constants kcat (moles product formed per second per mole enzyme), KM (M), and kcat /KM (M^-1 sec^-1) for the indicated substrates.

Papain [3] = target: T1, Papain; test: Hydrolysis of oxyamide and thioneamide substrates by papain (catalytic constants, Table I); conditions: pH 6.5, thiol buffer (52 mM NaH2PO4, 31 mM dithiothreitol, 2.1 mM EDTA), 12.5% DMSO
Description: as §2

Trypsin [4] = test: Selective detection assay, rate of AIE formation with trypsin alone (Table II); conditions: Trypsin 1.28×10^-6 M; thiol buffer pH 6.5, 2.5% DMSO; substrate 2.46×10^-4 M (Cbz-Lys-AIE) or 2.53×10^-4 M (Cbz-Lys.PSI.[CS]-AIE)
Description: as §1

| Compound | Rate of AIE formation (Papain [1]) | Km (Trypsin [2]) | kcat (Trypsin [2]) | kcat /KM (Trypsin [2]) | Km (Papain [3]) | kcat (Papain [3]) | kcat /KM (Papain [3]) | rate of product formation by trypsin (in words) (Trypsin [2]) | Rate of AIE formation (Trypsin [4]) |
| --- | --- | --- | --- | --- | --- | --- | --- | --- | --- |
| COC(=O)c1cc(NC(=O)[C@H](CCCCN)NC(=O)OCc2ccccc2)cc(C(=O)OC)c1 [Cbz--Lys--AIE, Cbz-Lys-AIE] | 6.03 moles AIE formed per minute | 168 µM | 1.15 × 10^-1 moles product formed per secon | 686 M⁻¹ s⁻¹ | 281 µM | 2.95 × 10^-2 moles product formed per secon | 105 M⁻¹ s⁻¹ |  |  |
| Cbz--Phe--Arg--AIE |  | 502 µM | 9.03 × 10^-1 moles product formed per secon | 1800 M⁻¹ s⁻¹ | 813 µM | 3.53 × 10^1 moles product formed per secon | 43500 M⁻¹ s⁻¹ |  |  |
| Br.COC(=O)c1cc(NC(=S)[C@H](CCCNC(=N)N)NC(=O)[C@H](Cc2ccccc2)NC(=O)OCc2ccccc2)cc(C(=O)OC)c1 [Cbz--Phe--Arg.psi.[CS]--AIE, Cbz-Phe-Arg.PSI.[CS]-AIE.HBr] |  |  |  |  | 574 µM | 5.35 moles product formed per secon | 0.0932 M⁻¹ s⁻¹ | NO RATE |  |
| Cbz-Lys.PSI.[CS]-AIE.HCl [Cbz--Lys.psi.[CS]--AIE] | 1.15 moles AIE formed per minute |  |  |  | 213 µM | 4.00 × 10^-3 moles product formed per secon | 18.8 M⁻¹ s⁻¹ | NO RATE | 0.00 moles AIE formed per minute |
